In PubChem BioAssay AID1963973 (Molecular Pharmacology Branch, DTP, NCI, 2024):

Tested on: 883617-216-R-J1-PDC tumor spheroids, viability
Test: Anticancer human tumor 883617-216-R-J1-PDC patient-derived bladder carcinoma cell line growth inhibition [PI3K]
Details: spheroids with HUVEC and MSC; for IC50: curve of first compound; for viability, T/C: stronger effect = lower value
How it was run: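 Tumor cells were combined with HUVEC and MSCs into spheroids, then dosed with PI3K-inhibitor combinations over half-log ranges capped near clinical Cmax or 10 microM.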

[1] = second compound 0.00316 µM, first compound 0.0316 µM
[2] = second compound 0.00316 µM, first compound 0.1 µM
[3] = second compound 0.01 µM, first compound 0.0316 µM
[4] = second compound 0.01 µM, first compound 0.1 µM
[5] = second compound 0.0316 µM, first compound 0.0316 µM
[6] = second compound 0.0316 µM, first compound 0.1 µM
[7] = second compound 0.1 µM, first compound 0.0316 µM
[8] = second compound 0.1 µM, first compound 0.1 µM
[9] = second compound 0.316 µM, first compound 0.0316 µM
[10] = second compound 0.316 µM, first compound 0.1 µM
[11] = second compound 1 µM, first compound 0.0316 µM
[12] = second compound 1 µM, first compound 0.1 µM
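Also: spheroids exposed to agents for 7 days before the viability read.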

## CC(C)NCC(C(=O)N1CCN(c2ncnc3c2C(C)CC3O)CC1)c1ccc(Cl)cc1 (centres undefined) + COc1c(OCCCN2CCOCC2)ccc2c3n(c(=NC(=O)c4cnc(N)nc4)nc12)CCN3
Second compound 0.00316 µM
  IC50: 475 nM
Second compound 0.01 µM
  IC50: 167 nM
Second compound 0.0316 µM
  IC50: < 31.6 nM
Second compound 0.1 µM
  IC50: < 31.6 nM
Second compound 0.316 µM
  IC50: < 31.6 nM
Second compound 1 µM
  IC50: < 31.6 nM
[1]
  viability, T/C: 89.7%
[2]
  viability, T/C: 67.4%
Second compound 0.00316 µM, first compound 0.316 µM
  viability, T/C: 59.5%
Second compound 0.00316 µM, first compound 1 µM
  viability, T/C: 41.5%
Second compound 0.00316 µM, first compound 3.16 µM
  viability, T/C: 18.4%
Second compound 0.00316 µM, first compound 10 µM
  viability, T/C: 7.44%
[3]
  viability, T/C: 63.5%
[4]
  viability, T/C: 53.7%
Second compound 0.01 µM, first compound 0.316 µM
  viability, T/C: 45.7%
Second compound 0.01 µM, first compound 1 µM
  viability, T/C: 26.7%
Second compound 0.01 µM, first compound 3.16 µM
  viability, T/C: 17.2%
Second compound 0.01 µM, first compound 10 µM
  viability, T/C: 6.61%
[5]
  viability, T/C: 44.2%
[6]
  viability, T/C: 37.1%
Second compound 0.0316 µM, first compound 0.316 µM
  viability, T/C: 26.4%
Second compound 0.0316 µM, first compound 1 µM
  viability, T/C: 27.7%
Second compound 0.0316 µM, first compound 3.16 µM
  viability, T/C: 8.87%
Second compound 0.0316 µM, first compound 10 µM
  viability, T/C: 4.74%
[7]
  viability, T/C: 22%
[8]
  viability, T/C: 15%
Second compound 0.1 µM, first compound 0.316 µM
  viability, T/C: 12.2%
Second compound 0.1 µM, first compound 1 µM
  viability, T/C: 9.69%
Second compound 0.1 µM, first compound 3.16 µM
  viability, T/C: 5.3%
Second compound 0.1 µM, first compound 10 µM
  viability, T/C: 3.5%
[9]
  viability, T/C: 5.34%
[10]
  viability, T/C: 5.49%
Second compound 0.316 µM, first compound 0.316 µM
  viability, T/C: 4.1%
Second compound 0.316 µM, first compound 1 µM
  viability, T/C: 4.13%
Second compound 0.316 µM, first compound 3.16 µM
  viability, T/C: 3.12%
Second compound 0.316 µM, first compound 10 µM
  viability, T/C: 2.45%
[11]
  viability, T/C: 2.86%
[12]
  viability, T/C: 3.36%
Second compound 1 µM, first compound 0.316 µM
  viability, T/C: 3.4%
Second compound 1 µM, first compound 1 µM
  viability, T/C: 2.86%
Second compound 1 µM, first compound 3.16 µM
  viability, T/C: 3.11%
Second compound 1 µM, first compound 10 µM
  viability, T/C: 1.47%

## Cn1ncnc1[C@H]1c2n[nH]c(=O)c3cc(F)cc(c23)N[C@@H]1c1ccc(F)cc1 + COc1c(OCCCN2CCOCC2)ccc2c3n(c(=NC(=O)c4cnc(N)nc4)nc12)CCN3
Second compound 0.00316 µM
  IC50: > 100 nM
Second compound 0.01 µM
  IC50: > 100 nM
Second compound 0.0316 µM
  IC50: < 0.316 nM
Second compound 0.1 µM
  IC50: < 0.316 nM
Second compound 0.316 µM
  IC50: < 0.316 nM
Second compound 1 µM
  IC50: < 0.316 nM
Second compound 0.00316 µM, first compound 0.000316 µM
  viability, T/C: 88.1%
Second compound 0.00316 µM, first compound 0.001 µM
  viability, T/C: 79.5%
Second compound 0.00316 µM, first compound 0.00316 µM
  viability, T/C: 87.2%
Second compound 0.00316 µM, first compound 0.01 µM
  viability, T/C: 75.3%
[1]
  viability, T/C: 67.2%
[2]
  viability, T/C: 54.6%
Second compound 0.01 µM, first compound 0.000316 µM
  viability, T/C: 63.2%
Second compound 0.01 µM, first compound 0.001 µM
  viability, T/C: 64.7%
Second compound 0.01 µM, first compound 0.00316 µM
  viability, T/C: 64.9%
Second compound 0.01 µM, first compound 0.01 µM
  viability, T/C: 86.1%
[3]
  viability, T/C: 54.8%
[4]
  viability, T/C: 45%
Second compound 0.0316 µM, first compound 0.000316 µM
  viability, T/C: 31.3%
Second compound 0.0316 µM, first compound 0.001 µM
  viability, T/C: 36.6%
Second compound 0.0316 µM, first compound 0.00316 µM
  viability, T/C: 35.3%
Second compound 0.0316 µM, first compound 0.01 µM
  viability, T/C: 33.9%
[5]
  viability, T/C: 39.3%
[6]
  viability, T/C: 29%
Second compound 0.1 µM, first compound 0.000316 µM
  viability, T/C: 16%
Second compound 0.1 µM, first compound 0.001 µM
  viability, T/C: 17.7%
Second compound 0.1 µM, first compound 0.00316 µM
  viability, T/C: 16.2%
Second compound 0.1 µM, first compound 0.01 µM
  viability, T/C: 15.3%
[7]
  viability, T/C: 15.6%
[8]
  viability, T/C: 14.1%
Second compound 0.316 µM, first compound 0.000316 µM
  viability, T/C: 5.21%
Second compound 0.316 µM, first compound 0.001 µM
  viability, T/C: 5.06%
Second compound 0.316 µM, first compound 0.00316 µM
  viability, T/C: 5.56%
Second compound 0.316 µM, first compound 0.01 µM
  viability, T/C: 5.19%
[9]
  viability, T/C: 5.74%
[10]
  viability, T/C: 3.68%
Second compound 1 µM, first compound 0.000316 µM
  viability, T/C: 4.93%
Second compound 1 µM, first compound 0.001 µM
  viability, T/C: 4.65%
Second compound 1 µM, first compound 0.00316 µM
  viability, T/C: 3.52%
Second compound 1 µM, first compound 0.01 µM
  viability, T/C: 2.9%
[11]
  viability, T/C: 3.13%
[12]
  viability, T/C: 2.73%
